Measurements from publication PMC10872856 (The Prostate, 2023).
pIC50: −log10 of the molar value.

Target: T1, N-myristoyltransferase 1 (NMT1) (Homo sapiens, UniProt P30419)
T1 sequence (P30419 1-496): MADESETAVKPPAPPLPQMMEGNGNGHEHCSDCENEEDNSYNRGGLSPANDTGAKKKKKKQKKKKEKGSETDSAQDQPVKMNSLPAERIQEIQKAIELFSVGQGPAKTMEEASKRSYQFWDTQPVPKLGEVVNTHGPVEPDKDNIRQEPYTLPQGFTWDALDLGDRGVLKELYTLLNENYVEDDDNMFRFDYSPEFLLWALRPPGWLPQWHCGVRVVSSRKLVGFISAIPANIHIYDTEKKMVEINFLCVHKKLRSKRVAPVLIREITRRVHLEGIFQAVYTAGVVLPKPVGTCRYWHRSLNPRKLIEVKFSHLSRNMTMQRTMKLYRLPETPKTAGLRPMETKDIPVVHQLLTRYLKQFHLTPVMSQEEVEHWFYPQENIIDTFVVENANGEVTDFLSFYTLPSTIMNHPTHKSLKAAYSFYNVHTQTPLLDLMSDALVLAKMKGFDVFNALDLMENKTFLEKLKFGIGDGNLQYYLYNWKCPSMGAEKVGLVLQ
Test: fluorogenic CoA-release enzyme assay
Format: biochemical

Compound `CCCCCCCCCCCCCCN[C@H](CO)[C@H](O)c1ccc([N+](=O)[O-])cc1` [LCL204, (1R,2R)-LCL204] has a pIC50 of 5.64.
